Data: US20030186967A1, “Acylresorcinol derivatives are selective vitronectin receptor inhibitors” (American Home Products Corporation, priority 1998, published 2003)
Structures can show the parent of a compound that is named as a salt.

Key:
[1] = biological target: T1, Vitronectin receptor αVβ3 (Homo sapiens, UniProt P05106+P06756); assay: Vitronectin Receptor αVβ3 Binding Assay; settings: for IC50: read-out: VnR (IC50μM)
T1 construct: expressed in transfected cells; host or cells: 512P5 cells (plasma membrane preparation)
T1 sequence (P06756 31-889 limits assumed): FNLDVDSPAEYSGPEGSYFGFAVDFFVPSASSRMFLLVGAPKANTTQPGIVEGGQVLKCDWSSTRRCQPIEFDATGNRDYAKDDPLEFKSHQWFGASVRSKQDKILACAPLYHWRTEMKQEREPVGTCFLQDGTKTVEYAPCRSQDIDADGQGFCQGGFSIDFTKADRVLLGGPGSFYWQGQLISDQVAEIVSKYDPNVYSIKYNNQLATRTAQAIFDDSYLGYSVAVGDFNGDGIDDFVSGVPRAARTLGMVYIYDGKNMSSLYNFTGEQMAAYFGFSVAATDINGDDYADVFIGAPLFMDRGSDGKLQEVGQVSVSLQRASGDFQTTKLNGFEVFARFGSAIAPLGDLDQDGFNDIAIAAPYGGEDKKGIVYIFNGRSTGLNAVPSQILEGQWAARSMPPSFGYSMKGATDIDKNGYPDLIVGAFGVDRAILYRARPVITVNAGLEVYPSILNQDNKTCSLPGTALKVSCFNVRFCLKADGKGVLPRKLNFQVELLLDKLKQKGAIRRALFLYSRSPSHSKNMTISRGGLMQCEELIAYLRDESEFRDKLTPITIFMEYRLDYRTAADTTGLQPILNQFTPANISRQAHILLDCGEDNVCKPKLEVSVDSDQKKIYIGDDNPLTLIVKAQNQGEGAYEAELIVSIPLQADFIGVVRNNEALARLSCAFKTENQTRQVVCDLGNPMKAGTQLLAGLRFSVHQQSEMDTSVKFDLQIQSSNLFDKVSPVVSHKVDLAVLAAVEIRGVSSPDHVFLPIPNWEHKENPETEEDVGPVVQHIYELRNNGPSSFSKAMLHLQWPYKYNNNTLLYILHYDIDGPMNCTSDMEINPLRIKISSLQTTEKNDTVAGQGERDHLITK
T1 sequence (P06756 891-1048 partner limits assumed): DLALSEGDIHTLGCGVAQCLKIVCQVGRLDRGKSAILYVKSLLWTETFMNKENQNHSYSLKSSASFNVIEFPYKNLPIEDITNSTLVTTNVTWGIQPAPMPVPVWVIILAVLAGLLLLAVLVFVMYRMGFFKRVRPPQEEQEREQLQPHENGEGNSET
T1 sequence (P05106 27-788): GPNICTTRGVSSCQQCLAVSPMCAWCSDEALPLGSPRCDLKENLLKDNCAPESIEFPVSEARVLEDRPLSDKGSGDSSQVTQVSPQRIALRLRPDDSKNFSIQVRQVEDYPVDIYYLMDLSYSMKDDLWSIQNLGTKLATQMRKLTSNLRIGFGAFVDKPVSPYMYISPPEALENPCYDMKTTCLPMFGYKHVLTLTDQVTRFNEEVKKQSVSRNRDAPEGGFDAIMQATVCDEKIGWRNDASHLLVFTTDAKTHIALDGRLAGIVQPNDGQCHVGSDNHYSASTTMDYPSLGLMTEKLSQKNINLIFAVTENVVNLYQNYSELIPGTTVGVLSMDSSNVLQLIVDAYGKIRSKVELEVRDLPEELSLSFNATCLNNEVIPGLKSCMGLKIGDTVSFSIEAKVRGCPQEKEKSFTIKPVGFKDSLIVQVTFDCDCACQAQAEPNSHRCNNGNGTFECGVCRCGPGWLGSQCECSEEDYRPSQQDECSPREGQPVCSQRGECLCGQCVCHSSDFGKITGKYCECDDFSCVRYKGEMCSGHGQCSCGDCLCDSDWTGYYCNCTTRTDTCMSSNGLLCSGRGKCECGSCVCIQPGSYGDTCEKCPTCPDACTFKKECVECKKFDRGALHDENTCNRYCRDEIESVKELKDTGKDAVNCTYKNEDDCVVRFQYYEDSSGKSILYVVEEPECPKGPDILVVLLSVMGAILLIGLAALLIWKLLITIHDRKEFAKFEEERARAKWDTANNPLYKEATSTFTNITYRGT

[2] = test system: thyro-parathyroidectomized (TPTX) rats; assay: PTH-induced hypercalcemia of thyroparathyroidectomized male rats; type: in vivo, rat; settings: 100 mg/kg; for inhibition in vivo at 100 mg/kg: Rattus norvegicus, sc
Method: Effects of test compounds on PTH-induced hypercalcemia of thyroparathyroidectomized male rats
Male thyro-parathyroidectomized (TPTX) rats (Charles River) were randomly assigned to groups of 7 rats/group. Following a baseline serum calcium determination an Alzet 1003D minipump (Alza Corporation, Palo Alto, Calif.) loaded with 0.3 mg/ml PTH (Bachem, Philadelphia, Pa.) was implanted subcutaneously in each rat. For evaluation of prophylactic effects of a test drug, another minipump with appropriate concentration of the test drug solution was implanted subcutaneously at a site away from PTH minipump. Alternatively, test drugs were administered by oral gavage as a solution or uniform suspension in an appropriate medium depending on the physical properties of the test compound. A group of 7 unimplanted TPTX rats was set aside as a normal control group. Twenty hours after minipump implantation blood was collected from each rat to confirm the presence of hypercalcemia (judged by elevation of serum calcium levels, 2 SD>normal non-implanted level). At various intervals between 0.5 and 24 hours after dosing (usually one to three time points), blood was collected from each rat and the serum evaluated for total calcium. Serum calcium levels were measured using the Nova 7+7 calcium auto analyzer spectrophotometrically using the Sigma test kit (#587A). Test results were determined by the difference in serum calcium between vehicle and treatment group following PTH administration, using a one-way analysis of variance with Dunnett's test or other multiple comparison methods.

αVβ3 integrin = biological target: T2, αVβ3 integrin (Homo sapiens, UniProt P05106+P06756); assay: Osteopontin-αVβ3 Cell Attachment Assay; type: cell-based
T2 construct: αVβ3-expressing cell lines are maintained by standard tissue culture techniques; endogenous in cells; host or cells: αVβ3-expressing cell lines
T2 sequence (P06756 31-889 limits assumed): as the sequence (P06756 31-889 limits assumed) above
T2 sequence (P06756 891-1048 partner limits assumed): as the sequence (P06756 891-1048 partner limits assumed) above
T2 sequence (P05106 27-788): as the sequence (P05106 27-788) above
Method: Osteopontin-αVβ3 Cell Attachment Assay The purpose of this assay is to measure the effect of various compounds on the RGD-dependent attachment of cells to osteopontin mediated by the αVβ3 integrin. […] Following the blocking period, wells are aspirated and washed once with D-PBS. Cell Suspension αVβ3-expressing cell lines are maintained by standard tissue culture techniques. […] The cells are pelleted by low-speed centrifugation and washed three times with 0.5 mg/mL trypsin inhibitor in D-PBS (Sigma). The final cell pellet is resuspended in cell suspension media at a concentration of 10^6 cells/mL. Attachment Assay Incubation: […] of diluted test compound is added to osteopontin-coated wells (in triplicate) followed by […] of cell suspension; background cell attachment is determined in uncoated wells. The plate is incubated at 25° C. in a humidified air atmosphere for 1.5 hours. Following the incubation period, the wells are gently aspirated and washed once with D-PBS. Cell Number Detection: The number of cells attached is determined by an MTT dye conversion assay (Promega) according to the manufacturer's instructions. Briefly, MTT dye is diluted in cell suspension media (15:85) and […] is added to each well. […] The assay plates are covered and incubated at 37° C. in a humidified air atmosphere overnight. […] Reference Compounds Various […]

Compound	IC50 [1] [µM]	other results
CCCCCCCCOC(=O)N[C@@H](CNC(=O)c1ccc(OCCNC(=O)NCc2ccncc2)cc1O)C(=O)O [Example 256, (2S)-3-({2-hydroxy-4-[2-({[(pyridin-4-ylmethyl)amino]carbonyl}-amino)ethoxy]-benzoyl}amino)-2-{[(octyloxy)carbonyl]amino}propanoic acid]	9.08	–
CC(C)(C)COC(=O)N[C@@H](CNC(=O)c1ccc(OCCNC(=O)NCc2ccncc2)cc1O)C(=O)O [Example 257, (2S)-3-({2-hydroxy-4-[2-({[(pyridin-4-ylmethyl)amino]carbonyl}-amino)ethoxy]-benzoyl}amino)-2-{[(neopentyloxy)carbonyl]amino}propanoic acid]	1.26	–
O=C(NCCOc1ccc(C(=O)NC[C@H](NC(=O)OCC(Cl)(Cl)Cl)C(=O)O)c(O)c1)NCc1ccncc1 [Example 258, (2S)-3-({2-hydroxy-4-[2-({[(pyridin-4-ylmethyl)amino]carbonyl}amino)-ethoxy]-benzoyl}amino)-2-{[(2,2,2-trichloroethoxy)carbonyl]amino}propanoic acid]	4.31	–
Cc1ccc(CNC(=O)NCCOc2ccc(C(=O)NC[C@H](NC(=O)OCc3ccccc3)C(=O)O)c(O)c2)cc1 [Example 261, (2S)-2-{[(benzyloxy)carbonyl]amino}-3-({2-hydroxy-4-[2-({[(4-methylbenzyl)-amino]carbonyl}amino)ethoxy]benzoyl}amino)propanoic acid]	20.2	–
COc1ccc(CNC(=O)NCCOc2ccc(C(=O)NC[C@H](NC(=O)OCc3ccccc3)C(=O)O)c(O)c2)cc1 [Example 262, (2S)-2-{[(benzyloxy)carbonyl]amino}-3-({2-hydroxy-4-[2-({[(4-methoxybenzyl)-amino]carbonyl}amino)ethoxy]benzoyl}amino)propanoic acid]	12.6	–
O=C(NCCOc1ccc(C(=O)NC[C@H](NC(=O)OCc2ccccc2)C(=O)O)c(O)c1)NCc1ccc(Cl)cc1 [Example 263, (2S)-2-{[(benzyloxy)carbonyl]amino}-3-({4-[2-({[(4-chlorobenzyl)amino]-carbonyl}-amino)ethoxy]-2-hydroxybenzoyl}amino)propanoic acid]	29	–
CN(C)c1ccc(CNC(=O)NCCOc2ccc(C(=O)NC[C@H](NC(=O)OCc3ccccc3)C(=O)O)c(O)c2)cc1 [Example 264, (2S)-2-{[(benzyloxy)carbonyl]amino}-3-[(4-{2-[({[4-(dimethylamino)benzyl]-amino}carbonyl)amino]ethoxy}-2-hydroxybenzoyl)amino]propanoic acid]	59.3	–
NS(=O)(=O)c1ccc(CNC(=O)NCCOc2ccc(C(=O)NC[C@H](NC(=O)OCc3ccccc3)C(=O)O)c(O)c2)cc1 [Example 265, (2S)-3-[(4-{2-[({[4-(aminosulfonyl)benzyl]amino}carbonyl)amino]ethoxy}-2-hydroxybenzoyl)amino]-2-{[(benzyloxy)carbonyl]amino}propanoic acid]	12.9	–
O=C(NCCOc1ccc(C(=O)NC[C@H](NC(=O)OCc2ccccc2)C(=O)O)c(O)c1)NCc1ccc(OC(F)(F)F)cc1 [Example 266, (2S)-2-{[(benzyloxy)carbonyl]amino}-3-[(2-hydroxy-4-{2-[({[4-(trifluoromethoxy)-benzyl]amino}carbonyl)amino]ethoxy}benzoyl)amino]propanoic acid]	29.6	–
O=C(NCCOc1ccc(C(=O)NC[C@H](NC(=O)OCc2ccccc2)C(=O)O)c(O)c1)NCc1ccccc1Cl [Example 267, (2S)-2-{[(benzyloxy)carbonyl]amino}-3-({4-[2-({[(2-chlorobenzyl)amino]carbonyl}-amino)ethoxy]-2-hydroxybenzoyl}amino)propanoic acid]	10.2	–
Cc1ccccc1CNC(=O)NCCOc1ccc(C(=O)NC[C@H](NC(=O)OCc2ccccc2)C(=O)O)c(O)c1 [Example 268]	33.4	–
O=C(NCCOc1ccc(C(=O)NC[C@H](NC(=O)OCc2ccccc2)C(=O)O)c(O)c1)NCc1ccccc1Br [Example 269, (2S)-2-{[(benzyloxy)carbonyl]amino}-3-({4-[2-({[(2-bromobenzyl)amino]-carbonyl}-amino)ethoxy]-2-hydroxybenzoyl}amino)propanoic acid]	21.2	–
O=C(NCCOc1ccc(C(=O)NC[C@H](NC(=O)OCc2ccccc2)C(=O)O)c(O)c1)NCc1ccc(Cl)cc1Cl [Example 270, (2S)-2-{[(benzyloxy)carbonyl]amino}-3-({4-[2-({[(2,4-dichlorobenzyl)amino]-carbonyl}amino)ethoxy]-2-hydroxybenzoyl}amino)propanoic acid]	21.7	–
Nc1ccccc1CNC(=O)NCCOc1ccc(C(=O)NC[C@H](NC(=O)OCc2ccccc2)C(=O)O)c(O)c1 [Example 271, (2S)-3-({4-[2-({[(2-aminobenzyl)amino]carbonyl}amino)ethoxy]-2-hydroxybenzoyl}-amino)-2-{[(benzyloxy)carbonyl]amino}propanoic acid]	13.7	–
O=C(NCCOc1ccc(C(=O)NC[C@H](NC(=O)OCc2ccccc2)C(=O)O)c(O)c1)NCc1ccccn1 [Example 272, (2S)-2-{[(benzyloxy)carbonyl]amino}-3-({2-hydroxy-4-[2-({[(pyridin-2-ylmethyl)-amino]carbonyl}amino)ethoxy]benzoyl}amino)propanoic acid]	10.6	–
CCOC(=O)[C@H](CNC(=O)c1ccc(OCCNc2ncccn2)cc1O)NS(=O)(=O)c1ccccc1 [Example 273]	–	TPTX (% inhibition) ([2]; s.c.): 57%
CCOC(=O)CC(NC(=O)c1ccc(OCCNC(=N)N)cc1O)c1ccccc1 (centres unmarked) [Example 279, 3-[4-(2-Guanidinoethoxy)-2-hydroxy-benzoylamino]-3-phenylpropanoic acid ethyl ester hydrochloride]	0.013	inhibition in vivo at 100 mg/kg [2]: 59%
CCOC(=O)CC(NC(=O)c1ccc(OCCNc2ncccn2)cc1O)c1cccnc1 (centres unmarked) [Example 281, 3-[2-Hydroxy-4-[2-(pyrimidin-2ylamino)ethoxy]-benzoylamino]-3-pyridine-3-ylpropionic acid ethyl ester]	–	VnR (IC50μM) [1]: inactive
O=C(O)CC(NC(=O)c1ccc(OCCNC2=NCCCN2)cc1O)c1cccnc1 (centres unmarked) [Example 282, 3-[2-Hydroxy-4-[2-(3,4,5,6-tetrahydropyrimidine-2ylamino)-ethoxy]benzoylamino]-3-pyridin-3-ylpropionic acid]	–	IC50 (αVβ3 integrin): 33 µM; VnR, % @ 100 ([1]; @ 100): −42% @ 100
CCOC(=O)CC(NC(=O)c1ccc(OCCNC2=NCCCN2)cc1O)c1cccnc1 (centres unmarked) [Example 283, 3-[2-Hydroxy-4-[2-(3,4,5,6-tetrahydropyrimidin-2-ylamino)ethoxy]benzoylamino]-3-pyridin-3-ylpropionic acid ethyl ester dihydrocloride]	123	–
O=C(O)CC(NC(=O)c1ccc(OCCNc2ncccn2)cc1O)c1ccccc1 (centres unmarked) [Example 287, 3-[2-hydroxy-4-[2-(pyrimidin-2-ylamino)-ethoxy]benzoyl-amino]-3-phenyl-propanoic acid hydrochloride]	0.26	–
CCOC(=O)CC(NC(=O)c1ccc(OCCNC2=NCCCN2)cc1O)c1ccccc1 (centres unmarked) [Example 292, 3-[2-hydroxy-4-[2-(3,4,5,6-tetrahydropyrimidin-2-ylamino)ethoxy]-benzoylamino]-3-phenyl-propanoic acid ethyl ester hydrochloride]	0.115	inhibition in vivo at 100 mg/kg [2]: 111%
NC(CNC(=O)c1ccc(OCCNC2=NCCCN2)cc1O)C(=O)O (centres unmarked) [Example 295, 2-Amino-3-[2-hydroxy-4-[2-(3,4,5,6-tetra-hydropyrimidin-2-ylamino)ethoxy]-benzoylamino]propionic acid dihydrochloride]	0.0018	–
(2S)-3-({2-hydroxy-4-[2-(pyrimidin-2-ylamino)ethoxy]benzoyl3 amino)-2-{[(4-methoxyanilino)carbonyl]amino}propanoic acid [Example 74]	> 1	–
(2S)-3-({2-hydroxy-4-[2-(pyrimidin-2-ylamino)ethoxy]benzoyl}amino)-2-{[1-naphthylamino)carbonyl]amino}propanoic acid [Example 91]	> 1	–
GRGESP [reference compound]	–	IC50 (μM) ([1]; reference peptides, 125I-Echistatin 50 pM, 512P5 (αVβ3-overexpressing) cell membranes): inactive at 100 μM
